Measured values taken from patent US4649139A, “1,2,4-triazines” (Burroughs Wellcome Co., priority 1983, dated 1987).

Key:
[1] = test system: aconitine-induced ventricular arrhythmias in anaesthetised rats; experiment: animal or person; assay type: in vivo, Male Wistar rats; details: for % decrease in DBP: resting diastolic blood pressure; for amount of aconitine required to elicit ventricular arrhythmia (in words): pretreatment i.v., versus control animals
Experimental: Male Wistar rats weighing 200-300 g were used. Anaesthesia was induced with a halothane:air mixture and maintained by intravenous administration of a chloralose/pentobarbitone sodium mixture (3 mg/ml pentobarbitone sodium+9.5 mg/ml chloralose) after insertion of a femoral vein cannula. A tracheal cannula was inserted and the animal was respired via a Palmer small animal respiration pump (72 strokes/min and approx 1 ml/100 g). Rectal temperature was thermostatically maintained at 37° C. throughout the experiment. Cannulae were placed in a jugular vein for administration of aconitine and a carotid artery for continuous measurement of blood pressure. Subdermal needle electrodes were inserted for the recording of electrocardiograms throughout the experiment.
When the blood pressure of the animal had stabilised for 10-15 minutes, aconitine (dissolved in distilled water+HCl and diluted in 5% dextrose) was infused via the jugular vein cannula at a rate of 1 μg/min (0.03 mls/min). The total dose of aconitine required to produce ventricular tachycardia or ventricular fibrillation (VT/VF) of at least 1 sec duration was taken as the endpoint of the assay.
Anti-arrhythmic activity was assessed by pretreating animals randomly with drug or vehicle 15 mins prior to aconitine infusion and comparing the dose of aconitine necessary to induce ventricular arrhythmias in treatment groups with that of control groups. The compounds in accordance with the invention were administered as the mesylate or hydrochloride salt prepared immediately before use in a 5% dextrose solution. All drugs were administered via a femoral venous cannula in a dose volume of 0.5 ml.

[2] = test system: guinea-pig right ventricular muscle; experiment: Guinea-pig right ventricular muscle preparation (Vmax of phase 0 of the action potential); assay type: cell-based, male guinea-pigs; details: Cavia porcellus; stimulated at 1 Hz; 0 to 3×10^-4 M in modified Tyrodes solution; read-out: EC50 (50% reduction in Vmax)
From the text: Guinea-pig right ventricular muscle preparation: (Campbell, Brit.J.Pharmac., 1982, 77, 541-548)
Strips of right ventricle excised from male guinea-pigs were electrically stimulated at a frequency of 1 Hz with punctate, bipolar silver wire electrodes.

Stability of the base = assay type: physicochemical; details: free base
beagle dogs = experiment: Toxicity in dogs, daily administration for 14 days; details: two to three times the effective dose, daily for 14 days
[3] = Rattus norvegicus, iv, 0.25 h, read-out: % increase in aconitine to elicit VT/VF

Row | Compound | change in vivo at 1 mg/kg [1, 3] | % decrease in DBP ([1]; dose 1 mg/kg (i.v.)) | also measured
1 | COc1ccccc1-c1nn(C)c(=N)nc1N [Example 8, 5(3)-Amino-6-(2-methoxyphenyl)-2,3(2,5)-dihydro-3(5)-imino-2-methyl-1,2,4-triazine] |  |  | change in vivo at 10 mg/kg [1, 3]: 51%; % decrease in DBP ([1]; dose 10 mg/kg (i.v.)): 8%
2 | CCCCCOc1ccccc1-c1nn(C)c(=N)nc1N [Example 3, 5(3)-Amino-6-(2-n-pentyloxyphenyl)-2,3(2,5)-dihydro-3(5)-imino-2-methyl-1,2,4-triazine] | 144% | 8% | IC50 [2]: 5.9 µM
3 | Cn1nc(-c2ccccc2)c(N)nc1=N [Example 5, 5(3)-Amino-6-phenyl-2,3(2,5)-dihydro-3(5)-imino-2-methyl-1,2,4-triazine] |  |  | change in vivo at 5 mg/kg [1, 3]: 30%; % decrease in DBP ([1]; dose 5 mg/kg (i.v.)): 5%
4 | Cn1nc(-c2cc(Cl)cc(Cl)c2Cl)c(N)nc1=N [Example 13, 5(3)-Amino-6-(2,3,5-trichlorophenyl)-2,3(2,5)-dihydro-3(5)-imino-2-methyl-1,2,4-triazine] | 246% | 1% | 
5 | N=c1nc(N)c(-c2cccc(Cl)c2Cl)nn1Cc1ccccc1 [Example 12, 5(3)-Amino-6-(2,3-dichlorophenyl)-2,3(2,5)-dihydro-3(5)-imino-2-benzyl-1,2,4-triazine] | 14% | 5% | 
6 | C=C[C@H]1C[N@@]2CC[C@H]1C[C@@H]2[C@@H](O)c1ccnc2ccc(OC)cc12 [Quinidine, reference compound] |  |  | change in vivo at 10 mg/kg [1, 3]: 8%; % decrease in DBP ([1]; dose 10 mg/kg (i.v.)): 43%; amount of aconitine required to elicit ventricular arrhythmia (in words) [1]: increased the amount of aconitine required to elicit the same ventricular arrhythmia
7 | CCCOc1ccccc1-c1nn(C)c(=N)nc1N [Example 16, 5(3)-Amino-6-(2-n-propyloxyphenyl)-2,3(2,5)-dihydro-3(5)-imino-2-methyl-1,2,4-triazine] | 15% | 3% | 
8 | CCCCCn1nc(-c2cccc(Cl)c2Cl)c(N)nc1=N [Example 18, 5(3)-Amino-6-(2,3-dichlorophenyl)-2,3(2,5)-dihydro-3(5)-imino-2-n-pentyl-1,2,4-triazine] | 46% | 1% | stability of the base (in words) (Stability of the base): unstable
9 | CC(C)n1nc(-c2cccc(Cl)c2Cl)c(N)nc1=N [Example 4, 5(3)-Amino-6-(2,3-dichlorophenyl)-2,3(2,5)-dihydro-3(5)-imino-2-isopropyl-1,2,4-triazine] | 490% | 13% | toxicity (in words) (beagle dogs): No marked toxicity was observed; IC50 [2]: 2.2 µM
10 | Cn1nc(-c2ccc(Cl)cc2Cl)c(N)nc1=N [Example 11, 5(3)-Amino-6-(2,4-dichlorophenyl)-2,3(2,5)-dihydro-3(5)-imino-2-methyl-1,2,4-triazine] | 33% | 7% | 
11 | CC(C)NCC(O)COc1cccc2ccccc12 (centres unmarked) [Propranolol, reference compound] | 51% | 0% | amount of aconitine required to elicit ventricular arrhythmia (in words) [1]: increased the amount of aconitine required to elicit the same ventricular arrhythmia
12 | CCN(CC)CCNC(=O)c1ccc(N)cc1 [Procainamide, reference compound] |  |  | change in vivo at 20 mg/kg [1, 3]: 11%; % decrease in DBP ([1]; dose 20 mg/kg (i.v.)): 22%; amount of aconitine required to elicit ventricular arrhythmia (in words) [1]: increased the amount of aconitine required to elicit the same ventricular arrhythmia
13 | COc1ccc(CCN(C)CCCC(C#N)(c2ccc(OC)c(OC)c2)C(C)C)cc1OC (centres unmarked) [Verapamil, reference compound] | 84% | 68% | amount of aconitine required to elicit ventricular arrhythmia (in words) [1]: increased the amount of aconitine required to elicit the same ventricular arrhythmia
14 | Cn1nc(-c2cccc(Cl)c2Cl)c(N)nc1=N [Example 1, 5(3)-Amino-6-(2,3-dichlorophenyl)-2,3(2,5)-dihydro-3(5)-imino-2-methyl-1,2,4-triazine] | 29% | 11% | IC50 [2]: 130 µM
15 | Cn1nc(-c2cc(Cl)ccc2Cl)c(N)nc1=N [Example 2, 5(3)-Amino-6-(2,5-dichlorophenyl)-2,3(2,5)-dihydro-3(5)-imino-2-methyl-1,2,4-triazine] |  |  | change in vivo at 5 mg/kg [1, 3]: 440%; % decrease in DBP ([1]; dose 5 mg/kg (i.v.)): 10%
16 | Cn1nc(-c2ccccc2I)c(N)nc1=N [Example 7, 5(3)-Amino-6-(2-iodophenyl)-2,3(2,5)-dihydro-3(5)-imino-2-methyl-1,2,4-triazine] |  |  | change in vivo at 5 mg/kg [1, 3]: 106%; % decrease in DBP ([1]; dose 5 mg/kg (i.v.)): 13%
17 | Cn1nc(-c2c(F)cccc2Cl)c(N)nc1=N [Example 6, 5(3)-Amino-6-(2-chloro-6-fluorophenyl)-2,3(2,5)-dihydro-3(5)-imino-2-methyl-1,2,4-triazine] |  |  | change in vivo at 5 mg/kg [1, 3]: 149%; % decrease in DBP ([1]; dose 5 mg/kg (i.v.)): 1%
18 | CCN(CC)CC(=O)Nc1c(C)cccc1C [Lidocaine, reference compound] |  |  | change in vivo at 10 mg/kg [1, 3]: 44%; % decrease in DBP ([1]; dose 10 mg/kg (i.v.)): 1%; amount of aconitine required to elicit ventricular arrhythmia (in words) [1]: increased the amount of aconitine required to elicit the same ventricular arrhythmia
19 | O=C1NC(=O)C(c2ccccc2)(c2ccccc2)N1 [Phenytoin, reference compound] |  |  | change in vivo at 10 mg/kg [1, 3]: 19%; % decrease in DBP ([1]; dose 10 mg/kg (i.v.)): 4%; amount of aconitine required to elicit ventricular arrhythmia (in words) [1]: increased the amount of aconitine required to elicit the same ventricular arrhythmia
20 | CCCCCOc1ccc(-c2nn(C)c(=N)nc2N)cc1 [Example 14, 5(3)-Amino-6-(4-n-pentyloxyphenyl)-2,3(2,5)-dihydro-3(5)-imino-2-methyl-1,2,4-triazine] | 8% | 2% | 
21 | CCCc1ccccc1-c1nn(C)c(=N)nc1N [Example 15, 5(3)-Amino-6-(2-n-propylphenyl)-2,3(2,5)-dihydro-3(5)-imino-2-methyl-1,2,4-triazine] | 12% | 5% | 
22 | Cn1nc(-c2ccccc2Cl)c(N)nc1=N [Example 9, 5(3)-Amino-6-(2-chlorophenyl)-2,3(2,5)-dihydro-3(5)-imino-2-methyl-1,2,4-triazine] | 32% | 4% | 
23 | CCCCCCCOc1ccccc1-c1nn(C)c(=N)nc1N [Example 17, 5(3)-Amino-6-(2-n-heptyloxyphenyl)-2,3(2,5)-dihydro-3(5)-imino-2-methyl-1,2,4-triazine] | 154% | 3% | 
24 | CCCn1nc(-c2cccc(Cl)c2Cl)c(N)nc1=N [Example 10, 5(3)-Amino-6-(2,3-dichlorophenyl)-2,3(2,5)-dihydro-3(5)-imino-2-n-propyl-1,2,4-triazine] | 225% | 3% | 
